Assays:
Format in all cases: cell-based
phosphorylated ERK = experiment: KRAS G12D-mediated phosphorylated ERK inhibition assay (AlphaLISA), A427; conditions: Homo sapiens, A-427; A427 cells; class symbols; read-out: pERK (A427) IC50
Description: The relative amounts of phosphorylated ERK and total ERK in the samples were separately determined according to the test methods provided in the instructions of the AlphaLISA SureFire Ultra p-ERK 1/2 (Thr202/Tyr204) kit (PerkinElmer) and the AlphaLISA SureFire Ultra TotalERK 1/2 kit (PerkinElmer).
The experimental procedures for the assay of the phosphorylated ERK and total ERK were as follows: 10 μL of each sample was added to a 384-well plate (Greiner), and 5 μL of the prepared Acceptor Beads (PerkinElmer) mixed solution (containing 50× Acceptor Beads 615, Activation Buffer, and equal volumes of Reaction Buffer 1 and Reaction Buffer 2) was added to each well; and the plate was incubated at room temperature for 2 h. Then 5 μL of 1× Donor Beads (PerkinElmer) diluted with Dilution Buffer was added to each well, and the plate was incubated at room temperature overnight. After the incubation was completed, AlphaLISA signal values for the phosphorylated ERK and total ERK were separately measured on an EnVision microplate reader (PerkinElmer) in the AlphaScreen standard mode. The following formula was adopted: phosphorylated ERK correction value=phosphorylated ERK AlphaLISA signal value/total ERK AlphaLISA signal value. The relative ratio of the phosphorylated ERK for each sample was calculated. The percentage inhibition rates of the compounds on the phosphorylated ERK at each concentration were calculated by comparing the relative value of the phosphorylated ERK with that of the DMSO control well. Then non-linear curve fittings for logarithmic concentration-inhibition rate were performed by the GraphPad Prism 8 analysis software, and the IC50 values of the compounds on the inhibition of the phosphorylated ERK were obtained (Table 2).

[1] = test system: KRAS G12D mutant human pancreatic cancer cell HPAC; experiment: 3D cell proliferation inhibition assay, HPAC; conditions: 168 h, 7 days, CTG
Procedure, shortened: (§1)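 A 7-day 3D growth at 37 °C, 5% CO2, 5×10^2 cells/well, with final compound concentrations of 10000–0.026 nM and 0.2% DMSO. Read-out: CTG luminescence (60 min, room temperature); % inhibition against DMSO-treated cells and medium blank, fitted versus log concentration to give IC50.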

[2] = test system: KRAS G12D mutant human pancreatic cancer cell Panc 04.03; experiment: 3D cell proliferation inhibition assay, Panc 04.03; conditions: 168 h, Panc 04.03, 7 days, CTG
Procedure, shortened: as §1

Row | SMILES | IC50 (phosphorylated ERK) | also measured
1 | C#Cc1c(F)ccc2cc(O)cc(-c3ncc4c(N5CC6CCC(C5)N6)nc(OCC5(CN6CCN(CCC7CCN(C(=O)c8ccc(Cl)c(N9CCC(=O)NC9=O)c8)CC7)CC6)CC5)nc4c3F)c12 [Example 3, 1-(5-(4-(2-(4-((1-(((4-(3,8-diazabicyclo[3.2.1]octan-3-yl)-7-(8-ethynyl-7-fluoro-3-hydroxynaphthalen-1-yl)-8-fluoropyrido[4,3-d]pyrimidin-2-yl)oxy)methyl)cyclopropyl)methyl)piperazin-1-yl)ethyl)piperidine-1-carbonyl)-2-chlorophenyl)dihydropyrimidine-2,4(1H,3H)-dione] | 50 to 100 nM | 
2 | CCc1c(F)ccc2cc(O)cc(-c3ncc4c(N5CC6CCC(C5)N6)nc(OCC5(CN6CCN(CC7CCC8(CC7)CCN(C(=O)c7ccc(Cl)c(N9CCC(=O)NC9=O)c7)CC8)CC6)CC5)nc4c3F)c12 [Example 30, 1-(5-(9-((4-((1-(((4-(3,8-diazabicyclo[3.2.1]octan-3-yl)-7-(8-ethyl-7-fluoro-3-hydroxynaphthalen-1-yl)-8-fluoropyrido[4,3-d]pyrimidin-2-yl)oxy)methyl)cyclopropyl)methyl)piperazin-1-yl)methyl)-3-azaspiro[5.5]undecane-3-carbonyl)-2-chlorophenyl)dihydropyrimidine-2,4(1H,3H)-dione] | ≤ 50 nM | 
3 | C#Cc1c(F)ccc2cc(O)cc(-c3ncc4c(N5CC6CCC(C5)N6)nc(OCC5(CN6CCN(CCCC7CCN(C(=O)c8ccc(Cl)c(N9CCC(=O)NC9=O)c8)CC7)CC6)CCC5)nc4c3F)c12 [Example 24, 1-(5-(4-(3-(4-((1-(((4-(3,8-diazabicyclo[3.2.1]octan-3-yl)-7-(8-ethynyl-7-fluoro-3-hydroxynaphthalen-1-yl)-8-fluoropyrido[4,3-d]pyrimidin-2-yl)oxy)methyl)cyclobutyl)methyl)piperazin-1-yl)propyl)piperidine-1-carbonyl)-2-chlorophenyl)dihydropyrimidine-2,4(1H,3H)-dione] | ≤ 50 nM | 
4 | C#Cc1c(F)ccc2cc(O)cc(-c3ncc4c(N5CC6CCC(C5)N6)nc(OCC5(CN6CCC(CCOCC7CCN(C(=O)c8ccc(Cl)c(N9CCC(=O)NC9=O)c8)CC7)CC6)CC5)nc4c3F)c12 [Example 10] | ≤ 50 nM | 
5 | C#Cc1c(F)ccc2cc(O)cc(-c3ncc4c(N5CC6CCC(C5)N6)nc(OCC5(CN6CCC(COCCC7CCN(C(=O)c8ccc(Cl)c(N9CCC(=O)NC9=O)c8)CC7)CC6)CC5)nc4c3F)c12 [Example 21, 1-(5-(4-(2-((1-((1-(((4-(3,8-diazabicyclo[3.2.1]octan-3-yl)-7-(8-ethynyl-7-fluoro-3-hydroxynaphthalen-1-yl)-8-fluoropyrido[4,3-d]pyrimidin-2-yl)oxy)methyl)cyclopropyl)methyl)piperidin-4-yl)methoxy)ethyl)piperidine-1-carbonyl)-2-chlorophenyl)dihydropyrimidine-2,4(1H,3H)-dione] | ≤ 50 nM | 
6 | C#Cc1c(F)ccc2cc(O)cc(-c3ncc4c(N5CC6CCC(C5)N6)nc(OCC5(CN6CCN(CCCCC7CCN(C(=O)c8ccc(Cl)c(N9CCC(=O)NC9=O)c8)CC7)CC6)CC5)nc4c3F)c12 [Example 5, 1-(5-(4-(4-(4-((1-(((4-(3,8-diazabicyclo[3.2.1]octan-3-yl)-7-(8-ethynyl-7-fluoro-3-hydroxynaphthalen-1-yl)-8-fluoropyrido[4,3-d]pyrimidin-2-yl)oxy)methyl)cyclopropyl)methyl)piperazin-1-yl)butyl)piperidine-1-carbonyl)-2-chlorophenyl)dihydropyrimidine-2,4(1H,3H)-dione] | ≤ 50 nM | 
7 | C#Cc1cccc2cc(O)cc(-c3ncc4c(N5CC6CCC(C5)N6)nc(OCC5(CN6CCN(CC7CCC8(CC7)CCN(C(=O)c7ccc(Cl)c(N9CCC(=O)NC9=O)c7)CC8)CC6)CC5)nc4c3F)c12 [Example 57, 1-(5-(9-((4-((1-(((4-(3,8-diazabicyclo[3.2.1]octan-3-yl)-7-(8-ethynyl-3-hydroxynaphthalen-1-yl)-8-fluoropyrido[4,3-d]pyrimidin-2-yl)oxy)methyl)cyclopropyl)methyl)piperazin-1-yl)methyl)-3-azaspiro [5.5]undecane-3-carbonyl)-2-chlorophenyl)dihydropyrimidine-2,4(1H,3H)-dione] |  | IC50 [1]: 9.88 nM; IC50 ([2]; class symbols): ≤ 50 nM
8 | C#Cc1c(F)ccc2cc(O)cc(-c3ncc4c(N5CC6CCC(C5)N6)nc(OCC(C)(C)CN5CCN(CCCC6CCN(C(=O)c7ccc(Cl)c(N8CCC(=O)NC8=O)c7)CC6)CC5)nc4c3F)c12 [Example 23, 1-(5-(4-(3-(4-(3-((4-(3,8-diazabicyclo[3.2.1]octan-3-yl)-7-(8-ethynyl-7-fluoro-3-hydroxynaphthalen-1-yl)-8-fluoropyrido[4,3-d]pyrimidin-2-yl)oxy)-2,2-dimethylpropyl)piperazin-1-yl)propyl)piperidine-1-carbonyl)-2-chlorophenyl)dihydropyrimidine-2,4(1H,3H)-dione] | 100 to 500 nM | 
9 | C#Cc1c(F)ccc2cc(O)cc(-c3ncc4c(N5CC6CCC(C5)N6)nc(OCC5(CN6CCN(CC7CCC8(CC7)CCN(C(=O)c7ccc(OC)c(N9CCC(=O)NC9=O)c7)CC8)CC6)CCC5)nc4c3F)c12 [Example 25, 1-(5-(9-((4-((1-(((4-(3,8-diazabicyclo[3.2.1]octan-3-yl)-7-(8-ethynyl-7-fluoro-3-hydroxynaphthalen-1-yl)-8-fluoropyrido[4,3-d]pyrimidin-2-yl)oxy)methyl)cyclobutyl)methyl)piperazin-1-yl)methyl)-3-azaspiro[5.5]undecane-3-carbonyl)-2-methoxyphenyl)dihydropyrimidine-2,4(1H,3H)-dione] | 100 to 500 nM | 
10 | C#Cc1c(F)ccc2cc(O)cc(-c3ncc4c(N5CC6CCC(C5)N6)nc(OCC5(CN6CCN(CC7CCC8(CC7)CCN(C(=O)c7ccc(Cl)c(N9CCC(=O)N(C)C9=O)c7)CC8)CC6)CC5)nc4c3F)c12 [Example 17, 1-(5-(9-((4-((1-(((4-(3,8-diazabicyclo[3.2.1]octan-3-yl)-7-(8-ethynyl-7-fluoro-3-hydroxynaphthalen-1-yl)-8-fluoropyrido[4,3-d]pyrimidin-2-yl)oxy)methyl)cyclopropyl)methyl)piperazin-1-yl)methyl)-3-azaspiro[5.5]undecane-3-carbonyl)-2-chlorophenyl)-3-methyldihydropyrimidine-2,4(1H,3H)-dione] | ≤ 50 nM | 
11 | C#Cc1c(F)ccc2cc(O)cc(-c3ccc4c(N5CC6CCC(C5)N6)nc(OCC5(CN6CCN(CC7CCC8(CC7)CCN(C(=O)c7ccc(C)c(N9CCC(=O)NC9=O)c7)CC8)CC6)CC5)nc4c3F)c12 [Example 42, 1-(5-(9-((4-((1-(((4-(3,8-diazabicyclo[3.2.1]octan-3-yl)-7-(8-ethynyl-7-fluoro-3-hydroxynaphthalen-1-yl)-8-fluoroquinazolin-2-yl)oxy)methyl)cyclopropyl)methyl)piperazin-1-yl)methyl)-3-azaspiro[5.5]undecane-3-carbonyl)-2-methylphenyl)dihydropyrimidine-2,4(1H,3H)-dione] |  | IC50 [1]: 2.96 nM; IC50 ([2]; numeric values): 8.41 nM
12 | C#Cc1c(F)ccc2cc(O)cc(-c3ncc4c(N5CC6CCC(C5)N6)nc(OCC(C)CN5CCN(CC6CCC7(CC6)CCN(C(=O)c6ccc(OC)c(N8CCC(=O)NC8=O)c6)CC7)CC5)nc4c3F)c12 (stereo not drawn) [Example 84, 1-(5-(9-((4-(3-((4-(3,8-diazabicyclo[3.2.1]octan-3-yl)-7-(8-ethynyl-7-fluoro-3-hydroxynaphthalen-1-yl)-8-fluoropyrido[4,3-d]pyrimidin-2-yl)oxy)-2-methylpropyl)piperazin-1-yl)methyl)-3-azaspiro[5.5]undecane-3-carbonyl)-2-methoxyphenyl)dihydropyrimidine-2,4(1H,3H)-dione] |  | IC50 [1]: 1.3 nM; IC50 ([2]; numeric values): 17 nM

— patent US20260166159A1, “KRAS G12D DEGRADATION AGENT, AND PREPARATION METHOD AND USE THEREFOR” (LEADINGTAC PHARMACEUTICAL (SHAOXING) CO., LTD., priority 2022, published 2026)
